In patent publication US5556853A, “Epoxysuccinic acid derivatives” (Takeda Chemical Industries, Ltd., priority 1993, dated 1996):
Counter-ions that a name gives are not always drawn.

What was measured:
[1] = target: T1, human recombinant cathepsin L (Homo sapiens, UniProt P07711); assay: Determination of Cathepsin L Inhibitory Activity; type: biochemical; details: Z-Phe-Arg-7MCA substrate, pH 5.5, 37° C., 20 minutes, read-out: Inhibitory activity potency IC50 Cathepsin L (converted)
T1 construct: made in house; host or cells: mouse myeloma Sp2/0 cells transformed with pTBN-HCLneo (Sp-HCL26), secreted into the culture supernatant
Procedure: To 75 μl of a reaction mixture containing 1 ng of human recombinant cathepsin L (as produced in Reference Examples 1 through 7 below), 2 μM dithiothreitol (hereinafter referred to as DTT), 1 mM ethylenediaminetetraacetate disodium salt, 0.1M sodium acetate buffer (pH 5.5) and various concentrations of sample, 25 μl of 20 μM benzyloxycarbonyl-L-phenylalanyl-L-arginine-4-methylcoumaryl-7-amide (hereinafter referred to as Z-Phe-Arg-7MCA, produced by Peptide Institute, Inc.) was added to initiate the reaction. After incubation at 37° C. for 20 minutes, 100 μl of a reaction stopper solution containing 100 mM sodium monochloroacetate was added. The amount of liberated 4-methyl-7-aminocoumarin was determined at an excitation wavelength of 365 nm and a fluorescence wavelength of 450 nm, using a fluorophotometer (FCA; produced by Baxter). The sample concentration required to cause 50% inhibition was expressed as the IC50 value, with the fluorescence value obtained from the same reaction in the absence of the sample taken as 100%.

[2] = target: T2, cathepsin B (Homo sapiens, UniProt P07858); assay: Determination of Cathepsin B Inhibitory Activity; type: biochemical; details: cathepsin B (Sigma), Z-Phe-Arg-7MCA substrate, pH 5.5, 37° C., 20 minutes; read-out: Inhibitory activity potency IC50 Cathepsin B (converted)
T2 construct: purchased Sigma
Procedure: To 75 μl of a reaction mixture containing 30 ng of cathepsin B (produced by Sigma), 2 μM DTT, 1 mM ethylenediaminetetraacetate disodium salt, 0.1M sodium acetate buffer (pH 5.5) and various concentrations of sample, 25 μl of 20 μM Z-Phe-Arg-7MCA was added to initiate the reaction. After reaction mixture incubation at 37° C. for 20 minutes, 100 μl of a reaction stopper solution containing 100 mM sodium monochloroacetate was added. The amount of liberated 4-methyl-7-aminocoumarin was determined at an excitation wavelength of 365 nm and a fluorescence wavelength of 450 nm, using a fluorophotometer. The sample concentration required to cause 50% inhibition was expressed as the IC50 value, with the fluorescence value obtained from the same reaction in the absence of the sample taken as 100%.

[3] = tested on: bone resorption as enhanced by PTH (parathyroid hormone) in femurs from female BALB/c mice; assay: Determination of Bone Resorption Suppressive Activity (PTH-enhanced, calcium release from cultured femurs); type: cell-based; details: 168 h; test compound 10 μg/ml, PTH 1 μM, 7 days, mouse femurs
Procedure: Compounds (I), (XI) and (XXI) or salts thereof excellently suppress bone resorption. Their suppressive action against bone resorption as enhanced by PTH (parathyroid hormone) was determined by the method described below.
Femurs were aseptically isolated from female BALB/c mice at 8-10 weeks of age. After the bone marrow cavity was washed with a Ham F12 medium containing 10% (w/w) thermally inactivated fetal calf serum, 100 unit/ml penicillin G and 100 unit/ml streptomycin (hereinafter referred to as culture broth), each femur was added to 1 ml of the culture broth and precultured for 3 hours at 37° C. in the presence of 5% carbon dioxide and 95% air. Each bone was transferred to 1 ml of the culture broth supplemented with PTH (produced by Peptide Institute, Inc., final concentration 1 μM) and the test compound (final concentration 10 μg/ml) and cultured for 7 more days, after which the total calcium content in the culture broth was determined using Calcium E-Test Wako (produced by Wako Pure Chemical Industries). The bone resorption suppressive activity of the test compound was calculated using the following equation:
Bone resorption suppressive activity (%)=100×(Cp-Cs)/(Cp-Cc)
Cc: Total calcium content in the culture broth containing neither PTH nor test compound
Cp: Total calcium content in the culture broth containing PTH […]

[4] = tested on: mice; assay: Toxicity Study; type: in vivo; details: intraperitoneally or orally administered at 400 mg/kg
Procedure: TAN-1756A caused no death in mice when it was intraperitoneally or orally administered at 400 mg/kg.
TAN-1803 monohydrochloride caused no death in mice when it was intraperitoneally or orally administered at 400 mg/kg.

T1 sequence (P07711 114-333): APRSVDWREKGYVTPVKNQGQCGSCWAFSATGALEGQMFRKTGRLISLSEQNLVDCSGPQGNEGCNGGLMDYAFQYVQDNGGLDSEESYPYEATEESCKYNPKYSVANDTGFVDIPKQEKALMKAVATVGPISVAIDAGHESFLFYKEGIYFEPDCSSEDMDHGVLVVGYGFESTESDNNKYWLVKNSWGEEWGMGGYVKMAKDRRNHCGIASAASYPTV

SMILES | IC50 [1] | IC50 [2] | activity at 10 µg/mL [3] | death in mice [4]
CC(C)C[C@H](NC(=O)[C@H]1O[C@@H]1C(=O)O)C(=O)N(CCCN)CCCCN [Compound 92, N-{N-[(2S,3S)-3-trans-carboxyoxirane-2-carbonyl]-L-leucyl}-N-(3-aminopropyl)-1,4-diaminobutane] | – | – | 149% | no death
NCCCCNC(=O)[C@H](Cc1ccccc1)NC(=O)[C@H]1O[C@@H]1C(=O)O [Compound 1, N-{N-[(2S,3S)-3-trans-carboxyoxirane-2-carbonyl]-L-phenylalanyl}-1,4-diaminobutane] | – | – | 150% | no death

Now from value to molecule, other results behind:

IC50 [1] | IC50 [2] | SMILES | activity at 10 µg/mL [3] | death in mice [4]
0.00199 µM | 0.0279 µM | O=C(NCCCCNC(=O)[C@H](Cc1ccccc1F)NC(=O)[C@H]1O[C@@H]1C(=O)O)OCc1ccccc1 [Compound 37] | – | –
0.00502 µM | 0.0853 µM | O=C(O)[C@H]1O[C@@H]1C(=O)N[C@@H](Cc1ccc2ccccc2c1)C(=O)N1CCOCC1 [Compound 82, N-{N-[(2S,3S)-3-trans-carboxyoxirane-2-carbonyl]-3-(2-naphthyl)-L-alanyl}morpholine monosodium salt] | – | –
0.00493 µM | 0.0592 µM | NCCCCCCCCNC(=O)[C@H](Cc1ccccc1)NC(=O)[C@H]1O[C@@H]1C(=O)O [Compound 23, N-(N-[(2S,3S)-3-trans-carboxyoxirane-2-carbonyl]-L-phenylalanyl}-1,8-diaminooctane] | – | –
